Data: EP0148075A2, “Anti-PGE specific monoclonal antibodies, their preparation and their biological applications” (INSTITUT PASTEUR, priority 1983, dated 1985)

Assays:
Assay type in all cases: binding, souris
[1] = tested on: anticorps monoclonal anti-PG E2 secrété par les hybridomes 42-61-48 (CNCM 1-255), type IgG Cb Kapa; test: competition radioimmunoassay (affinity by Scatchard plot, specificity by displacement of tritiated PG E2); details: 12 h at 4°C; for quantité qu'il faut pour déplacer 2,5 pg de PG E2 tritiée liée à l'anticorps: competition with tritiated PG E2
Method: (§1) 'L'affinité des anticorps est étudiée en effectuant un essai radio-immunologique dit de compétition; on détermine l'importance relative de la fixation de PG E marquée au tritium et non marquée sur les anticorps monoclonaux à étudier pour des mélanges de ces PG E en quantités données; Pour cela, on fait incuber 12 heures à 4°C des quantités croissantes de PG E non marquée avec une dilution du surnageant de chaque puits dans lequel se développent des clones secréteurs, en présence de 10 pg de la même PG E mais tritiée; on calcule la dilution pour que 50% de la PG E tritiée se fixe sur les anticorps présents; les résultats obtenus sont représentés selon une courbe de Scatchard, d'où l'on déduit, de façon connue, la constante d'association de l'anticorps monoclonal à la PG E qui traduit l'affinité des anticorps pour leur antigène. La méthode de calcul de la constante d'association est décrite notamment dans Ann. N.Y. Acad. Sci.5l, p.660-672 (1949).
(§2) La spécificité des anticorps est étudiée en effectuant le même type d'essai radioimmunologique de compétition lors de la fixation sur l'anticorps monoclonal anti-PG E à étudier, mais la compétition a lieu entre la PG E tritiée correspondant à l'anticorps préparé et d'autres prostaglandines.
(§3) On mesure l'affinité et la spécificité des anti-corps secrétés dans le surnageant, par les méthodes radio-immunologiques de compétition de liaison précédemment décrites.

[2] = tested on: anticorps monoclonal anti-PG E2 secrété par les hybridomes 8E57 (CNCM 1-254); test: as above; details: 12 h at 4°C; for quantité qu'il faut pour déplacer 2,5 pg de PG E2 tritiée de sa liaison à l'anticorps: competition with tritiated PG E2
Method: as §1, §2, §3

[3] = molecular target: anticorps monoclonal anti-PG E1 de la lignée d'hybridomes 36-F-20 (36F20, CNCM I-403), type IgG 1 Kapa; test: competition radioimmunoassay (affinity, Scatchard plot); details: association constant for PG E1; 720 min; read-out: constante d'affinité (converted)
Method: as §1

[4] = molecular target: anticorps monoclonal anti-PG E2 de la souche 38-200.10 (CNCM I-401), type IgGl Kapa; test: as above; details: association constant for PG E2; 720 min; read-out: constante d'affinité (converted)
Method: as §1, §3

[5] = molecular target: anticorps monoclonal anti-PG E2 de la souche 42-61-48.46 (CNCM I-402); test: as above; details: association constant for PG E2; 720 min; read-out: constante d'affinité (converted)
Method: as §1, §3

[6] = association constant for PG E2, 10 pg tritiated PG E2

CCCCC[C@H](O)/C=C/[C@H]1[C@H](O)CC(=O)[C@@H]1CC(=O)CCCCC(=O)O [6-céto-PG E1]
quantité qu'il faut pour déplacer 2,5 pg de PG E2 tritiée liée à l'anticorps [1]: 1000 pg
quantité qu'il faut pour déplacer 2,5 pg de PG E2 tritiée de sa liaison à l'anticorps [2]: 350 pg

CCCCC[C@H](O)/C=C/[C@H]1C=CC(=O)[C@@H]1C/C=C\CCCC(=O)O [PG A2]
quantité qu'il faut pour déplacer 2,5 pg de PG E2 tritiée liée à l'anticorps [1]: 50 000 pg
quantité qu'il faut pour déplacer 2,5 pg de PG E2 tritiée de sa liaison à l'anticorps [2]: > 500 pg

CCCCC[C@H](O)/C=C/C1=C(C/C=C\CCCC(=O)O)C(=O)CC1 [PG B2]
quantité qu'il faut pour déplacer 2,5 pg de PG E2 tritiée liée à l'anticorps [1]: 500 000 pg
quantité qu'il faut pour déplacer 2,5 pg de PG E2 tritiée de sa liaison à l'anticorps [2]: > 10 000 pg

CCCCC[C@H](O)/C=C/[C@H]1[C@H](O)CC(=O)[C@@H]1CCCCCCC(=O)O [PG E1]
Kd [3]: 0.05 nM
quantité qu'il faut pour déplacer 2,5 pg de PG E2 tritiée liée à l'anticorps [1]: 350 pg
quantité qu'il faut pour déplacer 2,5 pg de PG E2 tritiée de sa liaison à l'anticorps [2]: 70 pg

CCCCC[C@H](O)/C=C/[C@H]1[C@H](O)CC(=O)[C@@H]1C/C=C\CCCC(=O)O [PG E2]
Kd [4]: 0.11 nM
Kd [5]: 0.222 nM
constante d'affinité Ka [1, 6]: 5e+09 M⁻¹
quantité qu'il faut pour déplacer 2,5 pg de PG E2 tritiée liée à l'anticorps [1]: 80 pg
constante d'affinité Ka [2, 6]: 10^10 M^-1
quantité qu'il faut pour déplacer 2,5 pg de PG E2 tritiée de sa liaison à l'anticorps [2]: 40 pg

CCCCC[C@H](O)/C=C/[C@@H]1[C@@H](CCCCCCC(=O)O)[C@@H](O)C[C@H]1O [PG Flalpha]
quantité qu'il faut pour déplacer 2,5 pg de PG E2 tritiée liée à l'anticorps [1]: 40 000 pg
